Results published in patent publication US8476221B2, “Methods and compositions for the treatment of metabolic disorders” (Halimed Pharmaceuticals, Inc., priority 2011, dated 2013).
Non-standard residues stand in square brackets, D forms with d. Residues, ends and D or L forms follow the SMILES beside them. *: point of attachment. Tle = CC(C)(C)[C@H](N)C(=O)O; X1 = CCNCCCC(=O)*

Columns and labels:
[1] = Toxicity study in monkeys, serum chemistry (cholesterol, triglycerides, liver enzymes); type: in vivo
Description: A study was conducted to evaluate toxicity in monkeys with HPI-363 at doses of 0.05 to 5 mg/kg. The compound was administered as a slow IV push over 20 to 30 seconds. Six animals (3 males and 3 females) approximately 2 years old and weighing 2.1-2.5 kilograms were dosed once daily for 14 days. Blood chemistry was collected on Days 1-15. […] A reduction of 27%-40% in levels of cholesterol and triglycerides respectively from pre-dose was observed over 15 days. The lipid-lowering effect occurred within a 12 hr-period.

[2] = Body weight and food intake in Sprague-Dawley and obese Zucker (fa/fa) rats; type: in vivo; details: for Avg. Wt. Change (g) Days 1-10 / Food Consumption. (g) Days 1-10: 1 mg/kg IV daily Days 1-10; for Avg. Wt. Change (g) Days 11-20 / Food Consumption. (g) Days 11-20: saline Days 11-20 after 1 mg/kg IV daily Days 1-10
Description: Male Sprague-Dawley (SD, Harlan Laboratories) rats (210-220 g at initiation of experiments) and genetically obese Zucker (fa/fa) (ZF, Harlan Laboratories) rats (210-220 g at initiation of experiments) were housed individually under a 12 h:12 h light:dark schedule (lights on at 7:00 AM). All compound administration, animal and food weighing were performed between noon and 1 PM (during the light phase of the animals' circadian illumination schedule). Each rat was provided standard rat chow and water ad libitum throughout the experiments.
Each animal received either 1 mg/kg HPI-363 dissolved in saline IV (Treated) or saline (Vehicle or Untreated) for ten consecutive days followed by daily injections of saline for ten additional days. At the start of the experiment, each animal was weighed and single-housed with rat chow and water, with subsequent weighing occurring at 24 hr increments for 20 days. For food intake, 100 g of rat chow was placed in each animal's hopper and leftover chow in the hopper was collected and weighed every 24 hr for 20 days at the time of animal weighing. Chow was then replenished to 100 g each day. As a monitor of the general health of the animals, rats were observed twice daily.

NT1 receptor = NT1 receptor (Homo sapiens, UniProt P30989); details: receptor binding studies; cited from earlier work
NT2 receptor = NT2 receptor (Homo sapiens, UniProt O95665); details: receptor binding studies; cited from earlier work
NT2 receptor, sequence (O95665 whole entry): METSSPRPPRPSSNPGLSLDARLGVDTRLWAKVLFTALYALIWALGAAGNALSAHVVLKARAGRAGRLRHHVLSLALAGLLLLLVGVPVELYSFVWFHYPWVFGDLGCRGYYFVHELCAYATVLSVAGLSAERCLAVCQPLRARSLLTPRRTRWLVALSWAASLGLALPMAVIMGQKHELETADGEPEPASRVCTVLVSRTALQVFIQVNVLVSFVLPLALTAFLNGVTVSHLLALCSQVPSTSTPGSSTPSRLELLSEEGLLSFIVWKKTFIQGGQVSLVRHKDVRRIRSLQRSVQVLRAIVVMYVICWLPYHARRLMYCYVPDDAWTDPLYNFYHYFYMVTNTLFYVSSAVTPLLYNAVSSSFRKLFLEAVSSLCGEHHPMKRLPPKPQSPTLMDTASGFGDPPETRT

NT1 receptor, sequence (P30989 whole entry): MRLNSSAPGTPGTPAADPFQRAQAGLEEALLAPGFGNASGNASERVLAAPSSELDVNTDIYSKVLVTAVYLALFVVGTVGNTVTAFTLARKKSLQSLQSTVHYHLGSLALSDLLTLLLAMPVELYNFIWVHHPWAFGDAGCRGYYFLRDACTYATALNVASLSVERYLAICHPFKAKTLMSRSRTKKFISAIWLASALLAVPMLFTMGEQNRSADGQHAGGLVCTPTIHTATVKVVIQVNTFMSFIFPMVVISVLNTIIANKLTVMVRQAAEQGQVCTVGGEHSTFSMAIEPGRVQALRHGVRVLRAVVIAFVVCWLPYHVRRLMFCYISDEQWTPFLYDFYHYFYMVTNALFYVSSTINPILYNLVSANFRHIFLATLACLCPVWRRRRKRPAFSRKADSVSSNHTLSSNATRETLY

For `CCNCCCC(=O)N[C@@H](CCCNC(=N)N)C(=O)N1CCC[C@H]1C(=O)N[C@@H](Cc1c[nH]c2ccccc12)C(=O)N[C@H](C(=O)N[C@@H](CC(C)C)C(=O)O)C(C)(C)C` [HPI-363] (X1-RPW[Tle]L-OH), the “Time in which the lipid-lowering effect occurred” value ([1]; 0.05 to 5 mg/kg IV) was at most 12 h, the “Effect on cholesterol and triglycerides (serum chemistry)” value ([1]; 0.05 to 5 mg/kg IV once daily for 14 days) was “dose dependent effect” and the Liver enzymes ([1]; 0.05 to 5 mg/kg IV once daily for 14 days, normalized within the 15 days of the study) was “transient rise”. For the same compound, the “Reduction in levels of cholesterol from pre-dose” value ([1]; 0.05 to 5 mg/kg slow IV push once daily for 14 days, over 15 days) was 27%, the “General health, observed twice daily” value ([2]; SD and ZF rats, 20 days) was “No deviations from normal affect” and the “Avg. Wt. Change (g) Days 1-10” value ([2]; Sprague-Dawley (SD) rats) was 17.4 g. The “Food Consumption. (g) Days 1-10” value ([2]; Sprague-Dawley (SD) rats) was 148.5 g, the “Avg. Wt. Change (g) Days 11-20” value ([2]; Sprague-Dawley (SD) rats) was 40.0 g and the “Food Consumption. (g) Days 11-20” value ([2]; Sprague-Dawley (SD) rats) was 222.0 g. For the same compound, the “Avg. Wt. Change (g) Days 1-10” value ([2]; Zucker fa/fa (ZF) rats) was 54.6 g, the “Food Consumption. (g) Days 1-10” value ([2]; Zucker fa/fa (ZF) rats) was 252.7 g and the “Avg. Wt. Change (g) Days 11-20” value ([2]; Zucker fa/fa (ZF) rats) was 88.5 g. For the same compound, the “Food Consumption. (g) Days 11-20” value ([2]; Zucker fa/fa (ZF) rats) was 402.0 g, the Food intake ([2]; both SD and ZF rats, 1 mg/kg IV Days 1-10) was “decreased food intake” and the Weight gain ([2]; both SD and ZF rats, 1 mg/kg IV Days 1-10, maintained after cessation (Days 11-20)) was “inhibition of weight gain”.

For “Lys-(psiCH2NH)-Lys-Pro-Trp-Ter-Leu-Leu-OEt [PD149163]”, the “Affinity for the NT1 receptor” value (NT1 receptor) is listed as “has affinity” and the “Affinity for the NT2 receptor” value (NT2 receptor) is listed as “no detectable affinity”.
